The values below come from patent publication US20240300904A1, “PYRIDAZINONES FOR THE TREATMENT OR PREVENTION OF HYPERTENSION” (UNIVERSITETET I OSLO, priority 2021, published 2024).

In data set [1] the target is T1, human (h) natriuretic peptide receptor A (hNPR-A) (Homo sapiens, UniProt P16066).
T1 construct: expressed in transfected cells
T1 sequence (P16066 33-1061): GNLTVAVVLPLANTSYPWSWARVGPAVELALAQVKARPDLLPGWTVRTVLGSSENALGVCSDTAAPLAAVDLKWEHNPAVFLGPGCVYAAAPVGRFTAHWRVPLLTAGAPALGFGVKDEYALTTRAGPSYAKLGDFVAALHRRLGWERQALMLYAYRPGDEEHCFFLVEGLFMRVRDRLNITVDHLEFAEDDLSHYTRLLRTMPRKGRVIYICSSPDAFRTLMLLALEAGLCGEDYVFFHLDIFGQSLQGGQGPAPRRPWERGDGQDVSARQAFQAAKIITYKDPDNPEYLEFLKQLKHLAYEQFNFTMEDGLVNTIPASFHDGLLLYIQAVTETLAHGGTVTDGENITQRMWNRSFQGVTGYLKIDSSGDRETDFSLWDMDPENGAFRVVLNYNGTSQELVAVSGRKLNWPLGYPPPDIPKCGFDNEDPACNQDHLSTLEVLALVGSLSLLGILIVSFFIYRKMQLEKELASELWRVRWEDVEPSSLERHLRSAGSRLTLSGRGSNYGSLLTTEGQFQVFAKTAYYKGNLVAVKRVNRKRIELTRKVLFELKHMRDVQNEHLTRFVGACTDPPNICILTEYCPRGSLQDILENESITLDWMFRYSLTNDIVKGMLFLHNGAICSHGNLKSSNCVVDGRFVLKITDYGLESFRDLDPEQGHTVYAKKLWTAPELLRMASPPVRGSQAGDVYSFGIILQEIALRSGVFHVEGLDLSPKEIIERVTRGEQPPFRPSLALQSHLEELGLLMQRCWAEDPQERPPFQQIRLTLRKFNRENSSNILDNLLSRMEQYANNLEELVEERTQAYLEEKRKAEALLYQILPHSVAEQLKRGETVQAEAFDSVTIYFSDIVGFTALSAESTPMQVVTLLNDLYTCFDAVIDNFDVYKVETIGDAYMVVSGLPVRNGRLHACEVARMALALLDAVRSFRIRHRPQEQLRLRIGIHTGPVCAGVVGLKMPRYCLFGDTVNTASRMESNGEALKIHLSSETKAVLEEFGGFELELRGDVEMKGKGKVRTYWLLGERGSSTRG
T1 sequence (P16860 103-134 partner limits assumed): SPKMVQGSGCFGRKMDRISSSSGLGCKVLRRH
In words: AlphaScreen assay for cGMP: BNP-mediated NPR-A activity (cGMP production). The class given is cell-based. Particulars: conc. response of compound + 0.1 nM BNP; for EC50: NPR-A-expressing HEK293 cells, read-out: -LogEC50 (compound) (converted); for Emax: percentage of maximum BNP-mediated cGMP production, read-out: Max Response. The protocol: (§1) QBIHEK293A cells stably transfected with human (h) natriuretic peptide receptor A (hNPR-A) and hNPR-B were made as described in Bach et al., Naunyn Schmiedebergs Arch. Pharmacol. 2014; 387:5-14. Cells were grown in DMEM (Dulbecco's Modified Eagle's Medium, Gibco®, ThermoFischer Scientific) supplemented with 10% Fetal Bovine Serum (FBS), 100 U/ml penicillin, 0.1 mg/ml streptomycin, and 0.4 mg/ml G418 (geneticin) as selection antibiotic.
(§2) The AlphaScreen assay for cGMP (Perkin Elmer) was performed as described in Bach et al. (see above). NPR-A and NPR-B expressing HEK293 cells were split the day before the experiment and harvested using an EDTA solution (Versene, Invitrogen, ThermoFischer Scientific). A final concentration of 6000 cells/well was re-suspended in stimulation buffer (5 mM HEPES in HBSS at pH 7.4, 0.1% BSA) with IBMX (0.7 mM final). Compounds were dissolved in stimulation buffer and added to wells in increasing concentrations. Cells were incubated with the indicated compounds 20 minutes before addition of agonists (human BNP, human CNP or human proBNP) in various concentrations. Cells were stimulated for 20 minutes with agonist before the reactions were stopped (i.e. cells lysed) by adding the AlphaScreen Acceptor bead mix (Acceptor beads-anti-cGMP antibody and 0.5% Tween-20 in 5 mM HEPES buffer at pH 7.4). After 1 hour incubation, the Donor bead mix (Donor beads, biotinylated cGMP, 0.5% Tween-20 in 5 mM HEPES buffer at pH 7.4) was added (40 μl total volume) and incubation continued for 2 hours. The luminescence signals were analyzed quantitatively by reading of the plates on the EnVision® Multilabel Plate Reader (Perkin Elmer) using AlphaScreen emission 570 nm filter.

For data set [2], the target named is T2, NPR-A (Homo sapiens, UniProt P16066).
T2 construct: expressed in transfected cells; host or cells: HEK293 cells expressing NPR-A
T2 sequence (P16066 33-1061): T1 sequence (P16066 33-1061)
As to the kind of experiment: Whole-cell binding assays with 125I-ANP in intact NPR-A expressing HEK293 cells. As for the experimental part: as §1
Binding assays were carried out in intact NPR-A expressing HEK293 cells as described in Dickey et al., J Biol Chem. 2009; 284: 19196-202.

For data set [3], the target named is T3, human (h) natriuretic peptide receptor A (hNPR-A) (Homo sapiens, UniProt P16066).
T3 construct: expressed in transfected cells
T3 sequence (P16066 33-1061): T1 sequence (P16066 33-1061)
T3 sequence (P16860 27-134 partner): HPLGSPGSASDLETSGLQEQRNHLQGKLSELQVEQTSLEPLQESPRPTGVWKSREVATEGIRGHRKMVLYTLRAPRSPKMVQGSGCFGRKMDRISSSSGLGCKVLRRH
In words: AlphaScreen assay for cGMP: proBNP-mediated NPR-A activity. The format is cell-based. Particulars: conc. response of compound + 2 nM proBNP. As for the experimental part: as §1
as §2, with “Cells were stimulated for 20 minutes with agonist before the reactions were stopped (i.e. cells lysed) by adding the AlphaScreen Acceptor bead mix (Acceptor beads-anti-cGMP antibody and 0.5% Tween-20 in 5 mM HEPES buffer at pH 7.4). After 1 hour incubation, the Donor bead mix (Donor beads, biotinylated cGMP, 0.5% Tween-20 in 5 mM HEPES buffer at pH 7.4) was added (40 μl total volume) and incubation continued for 2 hours.” left out
(In general: Bead proximity is the source of the signal in Alpha formats.)

The test system of data set [4] is HeLa cells. As to the kind of experiment: MTT assay (cytotoxicity). The class given is cell-based. Particulars: 24 and 48 h, compared with compounds 3 and 11. The protocol:
Cells were incubated for 24 and 48 h with increasing concentrations of the indicated compound. The data represent formazan formation (absorbance) as a percentage of the negative control (1% DMSO).
The MTT (3-(4,5-dimethylthiazol-2-yl)-2,5-diphenyltetrazolium bromide) tetrazolium reduction assay was used to measure cytotoxicity of the compounds in vitro. Viable cells with active metabolism convert MTT into a purple colored formazan product with an absorbance maximum near 570 nm. HeLa cells were plated in 96-well plates in culture medium (DMEM (Dulbecco's Modified Eagle's Medium, Gibco®, ThermoFischer Scientific) supplemented with 10% Fetal Bovine Serum (FBS), 100 U/ml penicillin, 0.1 mg/ml streptomycin) the day before experiments. Cells were incubated for 24 or 48 h at 37° C. with increasing concentrations of each compound (in 1% DMSO). 1% DMSO and 20 mM H2O2 in culture medium were used as negative and positive control, respectively. MTT solution at a final concentration of 0.45 mg/ml was added to the wells and cells incubated for 1 to 4 hours at 37° C. Solubilization solution (40% (vol/vol) dimethylformamide (DMF), 2% (vol/vol) glacial acetic acid and 16% (wt/vol) sodium dodecyl sulfate (SDS)) was added to each well to dissolve formazan crystals. Absorbance was measured at 570 nm.
For orientation: Tetrazolium dyes change colour on reduction, which living cells bring about.

Turning to `O=C(Cn1ncc(Cl)c(Cl)c1=O)NC1CC1c1cnn(-c2ccccc2)c1` (racemic) [Compound 18, rac-2-(4,5-dichloro-6-oxopyridazin-1(6H)-yl)-N-((1R,2S)-2-(1-phenyl-1H-pyrazol-4-yl)cyclopropyl)acetamide], in data set [1], the EC50 was 200 nM and the Emax is 30.7%.
Regarding `O=C(Cn1ncc(Cl)c(Cl)c1=O)C12CC3CC(CC(C3)C1)C2` [Compound 1], in data set [1], the EC50 is 2510 nM and the Emax came out at 53.1%.
Turning to `O=C(Cn1ncc(Cl)c(Cl)c1=O)c1ccc(Cl)cc1` [Compound 2], the Emax in data set [2] (compound + 50 pM 125I-ANP, response of 50 pM 125I-ANP defined as 100%, read-out: Max Response) amounted to 173%; in data set [1], 45.3%; in data set [3] (percentage of maximum proBNP-mediated cGMP production, read-out: Max response), 99%. Further, the EC50 in data set [2] (conc. response compound + 50 pM 125I-ANP, NPR-A HEK293 cells, read-out: -LogEC50 (compound) (converted)) is 2 nM; in data set [1] it was 251 nM; in data set [3] (NPR-A-expressing HEK293 cells, read-out: -LOGEC50 (compound) (converted)), 1000 nM. In data set [2] (saturation binding, conc. response 125I-ANP + 10 μM compound), the “Fold change in Bmax” value was found to be 2.3. The “toxicity in MTT assay relative to corresponding dichloro compounds” value in data set [4] was “lower toxicity”.
On to `O=C(Cn1nccc(Cl)c1=O)c1ccc(Cl)cc1` [Compound 3, 4-chloro-2-(2-(4-chlorophenyl)-2-oxoethyl)pyridazin-3(2H)-one], for which, in data set [1], the EC50 was 12600 nM and the Emax is 48.6%.
For `O=C(Cn1ncc(Cl)cc1=O)c1ccc(Cl)cc1` [Compound 4, 5-chloro-2-(2-(4-chlorophenyl)-2-oxoethyl)pyridazin-3(2H)-one] the same measures were 5010 nM and 35.2%.
Turning to `COc1ccc(C(=O)Cn2ncc(Cl)c(Cl)c2=O)cc1` [Compound 5, 4,5-dichloro-2-(2-(4-methoxyphenyl)-2-oxoethyl) pyridazin-3(2H)-one], in data set [1], the EC50 was 3980 nM and the Emax turned out to be 38.6%.
With `N#Cc1ccc(C(=O)Cn2ncc(Cl)c(Cl)c2=O)cc1` [Compound 6, 4-(2-(4,5-dichloro-6-oxopyridazin-1(6H)-yl)acetyl) benzonitrile], in data set [1], the EC50 was 2510 nM and the Emax was 44.1%.
As for `O=C(Cn1ncc(Cl)c(Cl)c1=O)c1ccc(Cl)s1` [Compound 7], in data set [1], the EC50 is 251 nM and the Emax came out at 33.4%.
For `O=C(Cn1ncc(Cl)cc1=O)c1ccc(Cl)s1` [Compound 8, 5-chloro-2-(2-(5-chlorothiophen-2-yl)-2-oxoethyl) pyridazin-3(2H)-one] the same measures were 1580 nM and 27%.
The like results for `O=C(Cn1ncc(Cl)c(Cl)c1=O)c1ccc2c(c1)CCCC2` [Compound 9] were, in that order, 1260 nM and 27.7%.
On to `O=C(Cn1ncc(Br)c(Br)c1=O)c1ccc(Cl)cc1` [Compound 10], for which, in data set [1], the EC50 is 79.4 nM and the Emax was found to be 37%.
For `O=C(Cn1ncc(Cl)c(Cl)c1=O)c1ccc(Cl)cc1Cl` [Compound 11, 4,5-dichloro-2-[2-(2,4-dichlorophenyl)-2-oxo-ethyl]pyridazin-3-one] the same measures were 200 nM and 42.5%.
For `O=C(Cn1ncc(Cl)c(Cl)c1=O)c1ccc(Cl)c(F)c1` [Compound 12, 4,5-dichloro-2-[2-(4-chloro-3-fluoro-phenyl)-2-oxo-ethyl]pyridazin-3-one] the same measures were 398 nM and 44.3%.
For `Cc1cc(Cl)ccc1C(=O)Cn1ncc(Cl)c(Cl)c1=O` [Compound 13, 4,5-dichloro-2-[2-(4-chloro-2-methyl-phenyl)-2-oxo-ethyl]pyridazin-3-one] the same measures were 100 nM and 41%.
With `Cc1cc(C(=O)Cn2ncc(Cl)c(Cl)c2=O)ccc1Cl` [Compound 14, 4,5-dichloro-2-[2-(4-chloro-3-methyl-phenyl)-2-oxo-ethyl]pyridazin-3-one], in data set [1], the EC50 is 2510 nM and the Emax was determined as 45.4%.
The like results for `CC(C)c1ccc(CCNC(=O)Cn2ncc(Cl)c(Cl)c2=O)cc1` [Compound 15, 2-(4,5-dichloro-6-oxopyridazin-1(6H)-yl)-N-(4-isopropylphenethyl)acetamide] were, in that order, 794 nM and 27.8%.
For `O=C(Cn1ncc(Cl)c(Cl)c1=O)NCCc1cnn(-c2ccccc2)c1` [Compound 16, 2-(4,5-dichloro-6-oxopyridazin-1(6H)-yl)-N-(2-(1-phenyl-1H-pyrazol-4-yl)ethyl)acetamide] the same measures were 794 nM and 41%.
The like results for `O=C(Cn1ncc(Cl)c(Cl)c1=O)NCCc1c(Cl)cccc1Cl` [Compound 17, 2-(4,5-dichloro-6-oxopyridazin-1(6H)-yl)-N-(2,6-dichlorophenethyl)acetamide] were, in that order, 794 nM and 39.4%.
For the compound `O=C(Cn1ncc(Cl)c(Cl)c1=O)Nc1cnn(-c2ccccc2)c1` [Compound 19, 2-(4,5-dichloro-6-oxopyridazin-1(6H)-yl)-N-(1-phenyl-1H-pyrazol-4-yl)acetamide], in data set [1], the EC50 is 1000 nM and the Emax came to 45.7%.
In the case of `O=C(Cn1ncc(Cl)c(Cl)c1=O)NCc1cnn(-c2ccccc2)c1` [Compound 20, 2-(4,5-dichloro-6-oxopyridazin-1(6H)-yl)-N-((1-phenyl-1H-pyrazol-4-yl)methyl)acetamide], in data set [1], the EC50 was 6310 nM and the Emax is 49.4%.
